The results in this text go back to patent US20090170926A1, “Antiviral agents” (Monash Univeristy, priority 2004, published 2009).

Data set [1] relates to HBV containing mutations associated with resistance to lamivudine (L180M and L180M/M204V in the HBV DNA polymerase) in HepG2 hepatoma cells. The data set can be described thus: HBV core protein level in HepG2 hepatoma cells infected with lamivudine-resistant HBV (non-denaturing Western blot). It is filed as cell-based, hepatitis B virus. The following applies: day 5, HBV core protein vs controls. The procedure:
Antiviral activity was also examined in HepG2 hepatoma cells infected with HBV containing mutations associated with resistance to lamivudine (3TC). Two cell lines containing an L180M mutation in the HBV DNA polymerase, and a double L180M/M204V mutation were used. Cells were plated out in six well plates and allowed to attach overnight. Next day, the culture medium was replaced with either medium alone or medium containing the desired concentration of antiviral compound. Media was changed for fresh medium with or without antiviral compound on day 3. On day 5, supernatant and cell lysatcs were analysed for levels of HBV core protein by non-denaturing Western blot using an anti-HBV core antibody.
Results for some of the compounds are shown in Table 2 where a 50% reduction or more in measured level of the viral core protein compared to controls at a compound concentration of greater than 50 μmolar is designated +50% core reduction at less than 50 μmolar is designated ++ and 50% core reduction at less than 10 μmolar compound concentration is designated +++.
(In general: In western blotting, separated proteins are transferred to a membrane and probed.)

The test system of data set [2] is hepatitis B in 2.2.15 human hepatoma cells. The data set can be described thus: Antiviral activity in 2.2.15 human hepatoma cells infected with hepatitis B (viral DNA in supernatant). It counts as cell-based. The settings on record: Hepatitis B virus; for EC50: read-out: EC50 (effective concentration for 50% inhibition of the replication of the virus); for EC90: read-out: EC90 (effective concentration for 90% inhibition of the replication of the virus). The method, then: Tests of antiviral activity were performed in 2.2.15 human hepatoma cells infected with hepatitis B according to the method of Korba and Gerin, Antiviral Research, 19, 55-70 (1992). Briefly, cells were seeded into 96 well plates and cell media containing various concentrations of the compounds was added. Media was changed daily for 9 days and fresh media containing compound was added each day. On the 10th day, viral DNA in the supernatant was measured and the reduction in the amount of virus in the supernatant was calculated compared to cells incubated without drug. Six separate replicates were performed for each drug concentration. The effective concentration for 50% and 90% inhibition of the replication of the virus was determined from dose response curves.

A further data set can be described thus: Solubility in water. It counts as physicochemical. The following applies: read-out: solubility in water (fully soluble). The method, then: The ^1H NMR can also be run in D2O, compound 13 is fully soluble in water at 10 mg/mL
Where [3] appears, read: 2.2.15 cells, 9 days treatment, viral DNA in supernatant on day 10.

Like-named read-outs stand apart in the source and are kept apart here.

Consider `Cc1ccc(S(=O)(=O)OC2=C(Br)C(=O)c3ccc4c(c3C2=O)C=CC(C)(C)O4)cc1`, for which the melting point was in the range of 181.5 to 184 °C.

`Cc1ccc(S(=O)(=O)OC2=C(Br)C(=O)c3ccc4c(c3C2=O)CCC(C)(C)O4)cc1` displayed a melting point of 168 to 169.5 °C.

With `CC1(C)CCc2c(ccc3c2C(=O)C(Cl)=C(Cl)C3=O)O1`, the melting point was in the range of 158 to 160 °C.

Regarding `Cc1ccc(S(=O)(=O)OC2=C(Br)C(=O)c3c(ccc4c3CCC(C)(C)O4)C2=O)cc1`, the melting point was 109 to 115 °C.

`Cc1ccc(S(=O)(=O)OC2=C(Br)C(=O)c3c(ccc4c3C=CC(C)(C)O4)C2=O)cc1` gave a melting point of 167 to 168 °C.

Turning to `CC1(C)C=Cc2c(ccc3c2C(=O)C=C(O)C3=O)O1` [Compound 1, 8-hydroxy-3,3-dimethyl-3H-naphtho[2,1-b]pyran-7,10-dione], the melting point worked out at 208 °C. The “≧50% core reduction” value in data set [1] is “+++ (50% core reduction at less than 10 μmolar compound concentration is designated +++)”. Further, in data set [2], the EC50 was 600 nM and the EC90 was determined as 3400 nM.

Compound `CC1(C)CCc2c(ccc3c2C(=O)C=C(O)C3=O)O1` [Compound 2, 8-Hydroxy-3,3-dimethyl-1,2-dihydro-3H-naphtho[2,1-b]pyran-7,10-dione] gave a melting point of 183.5 to 187 °C. Moreover, in data set [2] (setting [3]), the EC50 turned out to be 1100 nM and the EC90 came to 1300 nM.

`CC1(C)CCc2c(ccc3c2C(=O)C(Br)=C(O)C3=O)O1` [Compound 5, 9-bromo-8-hydroxy-3,3-dimethyl-1,2-dihydro-3H-naphtho[2,1-b]pyran-7,10-dione] gave a melting point of 213 to 216 °C. For the same compound, in data set [1], the “≧50% core reduction” value is reported as “++ (50% core reduction at less than 50 μmolar is designated ++)”.

With `CC1(C)C=Cc2c(ccc3c2C(=O)C(Br)=C(O)C3=O)O1` [Compound 6, 9-Bromo-8-hydroxy-3,3-dimethyl-3H-naphtho[2,1-b]pyran-7,10-dione], the “≧50% core reduction” value in data set [1] is on record as “+ (a 50% reduction or more in measured level of the viral core protein compared to controls at a compound concentration of greater than 50 μmolar is designated +)”.

In the case of `CC1(C)C=Cc2c(ccc3c2C(=O)C=C(O)C3=O)O1` [Compound 13, Sodium 3,3-dimethyl-7,10-dioxo-7,10-dihydro-3H-benzo[f]chromen-8-olate], the solubility in “Solubility in water” is no less than 10000 µg/mL. For the same compound, in data set [1], the “≧50% core reduction” value is given as “+ (a 50% reduction or more in measured level of the viral core protein compared to controls at a compound concentration of greater than 50 μmolar is designated +)”.

For orientation: melting point means the temperature, or range, at which the solid turns liquid. One may read the solubility as the dissolved amount per volume that the medium holds.
